One assay deals with T1, hGSTM1-1 (Homo sapiens, UniProt P09488).
T1 sequence (P09488 1-218): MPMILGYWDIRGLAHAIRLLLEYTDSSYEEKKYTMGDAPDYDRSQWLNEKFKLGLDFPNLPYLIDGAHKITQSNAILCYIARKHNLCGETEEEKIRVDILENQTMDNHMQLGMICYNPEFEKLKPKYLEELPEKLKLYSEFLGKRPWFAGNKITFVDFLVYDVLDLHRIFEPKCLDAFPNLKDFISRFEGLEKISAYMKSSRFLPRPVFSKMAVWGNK
Nature of the assay: biochemical. Further details: made in house; host or cells: E. coli.
Details: not given
The protocol: (§1) Reduced GST assays were performed by monitoring the formation of the conjugate of CDNB (1 mM) with GSH (2.5 mM) at 340 nm (ε = 9.6 mM^−1cm^−1) for 120 s according to a published method. One unit of enzyme activity is defined as the amount of enzyme that produces 1 μmol of product per minute under the assay conditions.
Pesticide screening and inhibition potency evaluation towards hGSTM1-1 were carried out in the assay system described above in the presence of 25 μM pesticide diluted in acetone. During the assay, no measurable pesticide/GSH reaction was detected. The percentage of enzyme inhibition (I) was calculated using the following equation:%I = [(Ro − Ri)/Ro] × 100(3) where Ro is the unit of enzyme activity increase for the uninhibited reaction and Ri is the rate of increase for the inhibited reaction. Both Ri and Ro correspond to the same substrate concentration.
The compound `CNC(=O)Oc1cccc2ccccc12` [Carbaryl] came in with an inhibition at 25 µM of 0%.

Consider `CN/C(=N\[N+](=O)[O-])NCc1cnc(Cl)s1` [Clothianidin], for which 25 µM produced 0% inhibition.

`CNC(=O)CSP(=O)(OC)OC` [Omethoate] had an inhibition at 25 µM of 3.21%.

Compound `N#C/N=C1\SCCN1Cc1ccc(Cl)nc1` [Thiacloprid] displayed an inhibition at 25 µM of 10.7%.

Turning to `COP(=S)(OC)Oc1c(Cl)cc(C)cc1Cl` [Tolclofos-methyl], testing at 25 µM gave an inhibition of 9.32%.

Still in this assay, the particulars now being: 25 μM pesticide; CDNB (1 mM)-GSH (2.5 mM) assay; mean of three assays, variation less than 5%.
In the case of `COC(=O)Nc1nc2ccccc2[nH]1` [Carbedazim], the “Inhibition (%)” value was 8.00%.

`COP(=O)(OC)OC=C(Cl)Cl` [Dichloros]: the “Inhibition (%)” value came out at 1.48%.

Turning to `CCO[PH](=O)O` [Fosetyl-Al], the “Inhibition (%)” value is on record as 0.66%.

With `C#CCOc1ccc(CCNC(=O)C(OCC#C)c2ccc(Cl)cc2)cc1OC` (stereo not shown) [Mandipropamid], the “Inhibition (%)” value is 21.47%.

As to `CO/C=C(/C(=O)OC)c1ccccc1COc1cccc(C(F)(F)F)n1` [Picoxystrobin], the “Inhibition (%)” value came to 10.56%.

`CCC(C)(C)C(=O)OC1=C(c2ccc(Cl)cc2Cl)C(=O)OC12CCCCC2` [Spirodiclofen]: the “Inhibition (%)” value was 10.20%.

As to `Cc1cc(C)c(C2=C(OC(=O)CC(C)(C)C)C3(CCCC3)OC2=O)c(C)c1` [Spiromesifen], the “Inhibition (%)” value is 1.27%.

For the compound `O=S1OC[C@@H]2[C@H](CO1)[C@@]1(Cl)C(Cl)=C(Cl)[C@]2(Cl)C1(Cl)Cl` (stereo partly drawn) [alpha Endosulfan], the “Inhibition (%)” value came out at 16.66%.

As for Imidachlor, the “Inhibition (%)” value amounted to 10.14%.

Regarding Spinosad, the “Inhibition (%)” value was found to be 0%.

Still in this assay, the particulars now being: 25 μM pesticide; CDNB (1 mM)-GSH (2.5 mM) assay; mean of three assays, variation less than 5%; read-out: Inhibition (%).
With `CC1(C)[C@H](C(=O)O[C@H](C#N)c2cccc(Oc3ccccc3)c2)[C@@H]1/C=C(\Cl)C(F)(F)F` (racemic) [Lambda-Cyhalothrin], the inhibition at 25 µM stood at 0%.

For the compound `CCOCN(C(=O)CCl)c1c(C)cccc1CC` [Acetochlor, acetochlor], the inhibition at 25 µM came out at 13.8%.

For `CCc1cccc(CC)c1N(COC)C(=O)CCl` [Alachlor, alachlor], the inhibition at 25 µM came out at 32%.

Take `CC1(C)C(C=C(Cl)Cl)C1C(=O)OC(C#N)c1cccc(Oc2ccccc2)c1` (stereo not drawn) [Alpha cypermethrin]: the inhibition at 25 µM amounted to 0%.

As for `CCNc1nc(Cl)nc(NC(C)C)n1` [Atrazine], the inhibition at 25 µM was 28.7%.

On to `O=C(Nc1ccccc1-c1ccc(Cl)cc1)c1cccnc1Cl` [Boscalid], for which the inhibition at 25 µM was found to be 20.4%.

In the case of `CCCCOCN(C(=O)CCl)c1c(CC)cccc1CC` [Butachlor, butachlor], the inhibition at 25 µM was determined as 35.3%.

On to `CNC(=O)Oc1cccc2c1OC(C)(C)C2` [Carbofuran], for which the inhibition at 25 µM is 0%.

For the compound `CCOP(=S)(OCC)Oc1nc(Cl)c(Cl)cc1Cl` [Chlorpyrifos], the inhibition at 25 µM came to 0%.

Consider `CC1(C)[C@H](C(=O)O[C@H](C#N)c2cccc(Oc3ccccc3)c2)[C@@H]1C=C(Br)Br` [Deltamethrin], for which the inhibition at 25 µM amounted to 0%.

As to `CCOC(=O)Nc1cccc(OC(=O)Nc2ccccc2)c1` [Desmedipham], the inhibition at 25 µM is 0%.

As for `O=C(NC(=O)c1c(F)cccc1F)Nc1ccc(Cl)cc1` [Diflubenzuron], the inhibition at 25 µM is 0%.

As to `CN(C)C(=O)Nc1ccc(Cl)c(Cl)c1` [Diuron], the inhibition at 25 µM is 15%.

Take `O=S1OCC2C(CO1)C1(Cl)C(Cl)=C(Cl)C2(Cl)C1(Cl)Cl` (stereo not shown) [Endosulfan]: the inhibition at 25 µM worked out at 14.7%.

Consider `CSC1=N[C@@](C)(c2ccccc2)C(=O)N1Nc1ccccc1` [Fenamidone], for which the inhibition at 25 µM amounted to 0%.

As to `CC1(C(=O)Nc2ccc(O)c(Cl)c2Cl)CCCCC1` [Fenhexamid, fenhexamid], the inhibition at 25 µM stood at 35.3%.

Consider `CC(C)C(C(=O)OC(C#N)c1cccc(Oc2ccccc2)c1)c1ccc(Cl)cc1` (stereo not shown) [Fenvalerate], for which the inhibition at 25 µM came out at 0%.

For the compound `O=[N+]([O-])c1ccc(Oc2ccc(C(F)(F)F)cc2[N+](=O)[O-])cc1` [Fluorodifen], the inhibition at 25 µM was found to be 16.7%.

As for `CO/N=C(/C1=NOCCO1)c1ccccc1Oc1ncnc(Oc2ccccc2Cl)c1F` [Fluoxastrobin], the inhibition at 25 µM was 18.5%.

`O=[N+]([O-])NC1=NCCN1Cc1ccc(Cl)nc1` [Imidacloprid]: the inhibition at 25 µM came out at 0%.

For `CC(C)NC(=O)N1CC(=O)N(c2cc(Cl)cc(Cl)c2)C1=O` [Iprodione], the inhibition at 25 µM was determined as 19.5%.

With `CO/N=C(/C(=O)OC)c1ccccc1COc1ccccc1C` [Kresoxim-methyl], the inhibition at 25 µM came to 14.5%.

Turning to `Cl[C@H]1[C@H](Cl)[C@@H](Cl)[C@@H](Cl)[C@H](Cl)[C@H]1Cl` [Lindane], the inhibition at 25 µM is 13%.

`CCOC(=O)CC(SP(=S)(OC)OC)C(=O)OCC` (stereo not shown) [Malathion, malathion]: the inhibition at 25 µM came to 12.7%.

`COCC(=O)N(c1c(C)cccc1C)C(C)C(=O)OC` (stereo not shown) [Metalaxyl]: the inhibition at 25 µM is 19.8%.

For `Cc1cccc(C)c1N(Cn1cccn1)C(=O)CCl` [Metazachlor, metazachlor], the inhibition at 25 µM is 19.7%.

Regarding `CNC(=O)ON=C(C)SC` [Methomyl], the inhibition at 25 µM was 20%.

As to `CCc1cccc(C)c1N(C(=O)CCl)C(C)COC` (stereo not shown) [Metolachlor], the inhibition at 25 µM is 9.2%.

Regarding `CC1(C)C(C=C(Cl)Cl)C1C(=O)OCc1cccc(Oc2ccccc2)c1` (stereo not shown) [Permethrin], the inhibition at 25 µM worked out at 11.2%.

On to `COC(=O)Nc1cccc(OC(=O)Nc2cccc(C)c2)c1` [Phenmedipham], for which the inhibition at 25 µM is 16%.

In the case of `CC(C)N(C(=O)CCl)c1ccccc1` [Propachlor, propachlor], the inhibition at 25 µM stood at 11.2%.

Consider `OC(Cc1ccccc1Cl)(Cn1nc[nH]c1=S)C1(Cl)CC1` (stereo not shown) [Prothioconazole], for which the inhibition at 25 µM was determined as 26.5%.

Consider `Cc1cc(C)nc(Nc2ccccc2)n1` [Pyrimethanil], for which the inhibition at 25 µM came to 7.49%.

Consider `CCOC(=O)OC1=C(c2cc(C)ccc2C)C(=O)N[C@]12CC[C@@H](OC)CC2` [Spirotetramat], for which the inhibition at 25 µM was found to be 29.3%.

As to `O=C(NC(=O)c1c(F)cccc1F)Nc1cc(Cl)c(F)c(Cl)c1F` [Teflubenzuron], the inhibition at 25 µM came out at 11.2%.

Take `CCNc1nc(Cl)nc(NC(C)(C)C)n1` [Terbuthylazine]: the inhibition at 25 µM was 12%.

With `CC(C)(C)C(O)C(Oc1ccc(Cl)cc1)n1cncn1` (stereo not shown) [Triadimenol], the inhibition at 25 µM stood at 0%.

As to `CON=C(C(=O)OC)c1ccccc1CON=C(C)c1cccc(C(F)(F)F)c1` [Trifloxystrobin], the inhibition at 25 µM turned out to be 2.88%.

In the case of `O=C(NC(=O)c1ccccc1Cl)Nc1ccc(OC(F)(F)F)cc1` [Triflumuron], the inhibition at 25 µM was determined as 22.7%.

Consider `C=CC1(C)OC(=O)N(c2cc(Cl)cc(Cl)c2)C1=O` (stereo not shown) [Vinclozolin], for which the inhibition at 25 µM was 14.3%.

With `CCC(C)(NC(=O)c1cc(Cl)c(C)c(Cl)c1)C(=O)CCl` (stereo not shown) [Zoxamide], the inhibition at 25 µM was 20%.

The next assay addresses T1, hGSTM1-1. Description: IC50 determination, concentration-response in CDNB-GSH assay. The class given is biochemical. On the set-up: made in house; host or cells: E. coli. To be noted: 37 °C, pH 6.5; CDNB-GSH assay; read-out: IC50. Here is the method: as §1
[…]. The IC50 values were determined using the program GraphPad Prism (GraphPad Software Inc., Version 7, San Diego, CA, USA).
For `CCCCOCN(C(=O)CCl)c1c(CC)cccc1CC` [Butachlor, butachlor], the half-inhibitory concentration (IC50) is 236 ± 4.5 µM.

Take `CC1(C(=O)Nc2ccc(O)c(Cl)c2Cl)CCCCC1` [Fenhexamid, fenhexamid]: the IC50 was 278 ± 14.5 µM.

The inhibition is how much of the control response was suppressed. Broadly, the IC50 is the concentration that inhibits the measured activity by half.

The values are drawn from article PMC8998827, “Ligandability Assessment of Human Glutathione Transferase M1-1 Using Pesticides as Chemical Probes” (International Journal of Molecular Sciences, 2022).
